Data on 17 compounds can be found in ChEMBL document CHEMBL3580565, “Synthesis and Biological Evaluation of Cyclopentaquinoline Derivatives as Nonsteroidal Glucocorticoid Receptor Antagonists” (J Med Chem, 2015).

Assay [1] concerns the target T1, Glucocorticoid receptor (Homo sapiens, UniProt P04150).
T1 sequence (P04150 whole entry): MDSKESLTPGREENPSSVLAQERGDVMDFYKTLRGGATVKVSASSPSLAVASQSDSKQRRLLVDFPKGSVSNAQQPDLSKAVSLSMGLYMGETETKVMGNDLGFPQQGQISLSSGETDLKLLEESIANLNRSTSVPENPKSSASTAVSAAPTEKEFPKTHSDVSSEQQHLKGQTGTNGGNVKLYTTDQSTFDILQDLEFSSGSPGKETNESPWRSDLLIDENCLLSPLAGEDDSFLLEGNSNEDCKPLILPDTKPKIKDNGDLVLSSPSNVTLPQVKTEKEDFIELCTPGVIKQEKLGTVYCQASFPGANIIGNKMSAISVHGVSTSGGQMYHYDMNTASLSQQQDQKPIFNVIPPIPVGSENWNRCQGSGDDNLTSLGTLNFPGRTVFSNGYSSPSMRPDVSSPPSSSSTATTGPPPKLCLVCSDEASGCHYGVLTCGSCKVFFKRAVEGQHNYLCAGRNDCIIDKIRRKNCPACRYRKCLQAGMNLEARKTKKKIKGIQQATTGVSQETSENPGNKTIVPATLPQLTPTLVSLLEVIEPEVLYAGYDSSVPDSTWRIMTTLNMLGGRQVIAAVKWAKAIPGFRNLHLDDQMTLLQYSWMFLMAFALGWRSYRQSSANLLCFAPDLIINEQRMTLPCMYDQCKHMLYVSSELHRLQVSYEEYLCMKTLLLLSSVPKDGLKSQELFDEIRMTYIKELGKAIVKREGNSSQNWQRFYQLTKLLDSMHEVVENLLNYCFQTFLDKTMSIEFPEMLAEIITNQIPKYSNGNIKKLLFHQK
In words: Displacement of [3H]-dexamethasone from cytosolic fraction of human recombinant glucocorticoid receptor by scintillation counting analysis. For orientation: Loss of bound radioactivity is the signal in a displacement assay; it reports binding, not function.

Assay [2] concerns the target T1, Glucocorticoid receptor. In words: Antagonist activity at human glucocorticoid receptor transfected in CHOK1 cells assessed as inhibition of dexamethasone-induced receptor transcriptional activity after 6 hrs by luciferase reporter gene assay. In kind it is cell-based, CHO-K1. A general note: Reporter assays use an easily measured gene product as a stand-in for the process of interest.

The target in the next assay is T2, Progesterone receptor (Homo sapiens, UniProt P06401).
T2 sequence (P06401 whole entry): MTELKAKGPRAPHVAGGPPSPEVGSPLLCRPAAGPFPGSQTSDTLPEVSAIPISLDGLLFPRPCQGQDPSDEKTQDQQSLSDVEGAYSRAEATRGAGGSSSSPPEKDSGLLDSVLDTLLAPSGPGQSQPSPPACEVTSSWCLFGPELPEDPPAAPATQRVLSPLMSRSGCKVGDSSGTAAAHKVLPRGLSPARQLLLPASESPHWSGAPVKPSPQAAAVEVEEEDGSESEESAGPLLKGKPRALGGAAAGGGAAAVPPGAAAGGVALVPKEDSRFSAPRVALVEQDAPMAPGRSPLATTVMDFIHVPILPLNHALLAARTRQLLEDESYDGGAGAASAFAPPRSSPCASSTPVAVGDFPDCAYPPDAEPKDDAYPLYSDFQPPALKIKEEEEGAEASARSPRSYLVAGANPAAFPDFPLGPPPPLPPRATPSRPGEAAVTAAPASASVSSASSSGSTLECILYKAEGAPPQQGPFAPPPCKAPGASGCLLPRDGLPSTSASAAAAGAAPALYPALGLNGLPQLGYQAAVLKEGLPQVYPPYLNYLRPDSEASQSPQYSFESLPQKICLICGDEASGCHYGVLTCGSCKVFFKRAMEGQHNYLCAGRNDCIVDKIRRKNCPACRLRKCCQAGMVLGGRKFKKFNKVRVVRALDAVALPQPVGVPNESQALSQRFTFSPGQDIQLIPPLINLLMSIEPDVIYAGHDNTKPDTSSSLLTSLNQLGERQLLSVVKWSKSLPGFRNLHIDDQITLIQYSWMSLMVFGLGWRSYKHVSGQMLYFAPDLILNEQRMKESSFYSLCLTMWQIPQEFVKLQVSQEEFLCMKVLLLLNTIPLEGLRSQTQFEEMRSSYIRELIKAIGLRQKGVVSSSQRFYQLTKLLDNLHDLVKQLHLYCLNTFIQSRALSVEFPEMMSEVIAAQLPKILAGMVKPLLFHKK
In words: Displacement of [3H]-progesterone from cytosolic fraction of human recombinant progesterone-B receptor by scintillation counting analysis.

Assay [3] has as its target T3, Mineralocorticoid receptor (Homo sapiens, UniProt P08235).
T3 sequence (P08235 whole entry): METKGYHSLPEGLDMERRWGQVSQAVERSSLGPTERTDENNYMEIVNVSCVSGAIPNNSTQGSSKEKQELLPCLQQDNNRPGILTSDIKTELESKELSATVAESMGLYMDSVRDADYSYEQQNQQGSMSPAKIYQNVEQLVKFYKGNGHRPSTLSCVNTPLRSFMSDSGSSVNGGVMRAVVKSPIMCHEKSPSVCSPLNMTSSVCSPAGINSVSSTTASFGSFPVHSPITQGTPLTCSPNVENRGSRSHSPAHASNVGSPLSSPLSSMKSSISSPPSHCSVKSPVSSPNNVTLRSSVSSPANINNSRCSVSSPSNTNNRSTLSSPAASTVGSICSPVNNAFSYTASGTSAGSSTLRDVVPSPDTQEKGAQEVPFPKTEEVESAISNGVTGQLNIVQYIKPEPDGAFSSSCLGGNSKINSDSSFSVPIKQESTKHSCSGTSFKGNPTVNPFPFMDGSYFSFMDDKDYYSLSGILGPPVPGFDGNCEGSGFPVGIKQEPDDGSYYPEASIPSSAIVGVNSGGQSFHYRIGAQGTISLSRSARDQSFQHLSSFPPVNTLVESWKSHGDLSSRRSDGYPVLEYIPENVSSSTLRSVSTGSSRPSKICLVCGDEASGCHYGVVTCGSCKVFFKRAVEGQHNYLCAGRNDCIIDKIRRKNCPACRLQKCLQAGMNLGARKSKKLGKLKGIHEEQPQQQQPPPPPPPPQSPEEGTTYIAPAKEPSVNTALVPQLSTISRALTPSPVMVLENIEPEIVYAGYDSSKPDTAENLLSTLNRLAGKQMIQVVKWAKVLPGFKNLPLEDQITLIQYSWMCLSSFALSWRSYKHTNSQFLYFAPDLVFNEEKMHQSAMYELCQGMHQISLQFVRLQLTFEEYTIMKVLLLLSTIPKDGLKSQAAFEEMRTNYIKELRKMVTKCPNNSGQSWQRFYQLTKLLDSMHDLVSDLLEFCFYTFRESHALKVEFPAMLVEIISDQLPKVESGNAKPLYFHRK
In words: Displacement of [3H]-aldosterone from cytosolic fraction of human recombinant mineralocorticoid receptor by scintillation counting analysis.

For assay [4], the system named is Rattus norvegicus. In words: Antidepressant-like activity in Wistar rat assessed as immobility time at 10 mg/kg, po administered at 1, 5, 23.5 hrs prior to testing measured for 5 mins by forced swimming test (reference value: 211.3 to 232.2 secs). In kind it is functional.
Assay [5] concerns Rattus norvegicus. In words: Antidepressant-like activity in Wistar rat assessed as immobility time at 30 mg/kg, po administered at 1, 5, 23.5 hrs prior to testing measured for 5 mins by forced swimming test (reference value: 211.3 to 232.2 secs). In kind it is functional.
Assay [6] deals with Rattus norvegicus. In words: Antidepressant-like activity in Wistar rat assessed as decrease in immobility time at 10 mg/kg, po administered at 1, 5, 23.5 hrs prior to testing measured for 5 mins by forced swimming test relative to vehicle-treated control. The format is functional. The arrangement: scale not given: the % may be the effect or the level left.
Assay [7] deals with Rattus norvegicus. In words: Antidepressant-like activity in Wistar rat assessed as decrease in immobility time at 30 mg/kg, po administered at 1, 5, 23.5 hrs prior to testing measured for 5 mins by forced swimming test relative to vehicle-treated control. The format is functional. The arrangement: scale not given: the % may be the effect or the level left.

As usually defined, the Ki is the equilibrium dissociation constant of an inhibitor or competing ligand from its target. As a reminder, the IC50 is the concentration that gives 50% inhibition. With `Cc1ncn(C)c1-c1cc2c(c3c1CCC3)NC(C)(C)C(=O)C2(C)C`, the Ki on Glucocorticoid receptor [1] is 69 nM. Further, at Glucocorticoid receptor [2], the IC50 was 150 nM.

On to `Cc1noc(C)c1-c1ccc2c(c1)C(C)(C)C(=O)C(C)(C)N2`, for which the values for the Ki (on Glucocorticoid receptor [1]; on Progesterone receptor; in assay [3]) were 16 nM, 22 nM and 337 nM, respectively. Also, the IC50 on Glucocorticoid receptor [2] is 37 nM.

`CC1(C)Nc2c(cc(-c3cccc4nncn34)c3c2CCC3)C(C)(C)C1=O`: at Glucocorticoid receptor [2], the IC50 was 91 nM.

Regarding `CC1(C)Nc2c(cc(-c3cccn4cnnc34)c3c2CCC3)C(C)(C)C1=O`, at Glucocorticoid receptor [1], the inhibition constant Ki is over 384 nM.

For the compound `Cc1noc(C)c1-c1cc2c(cc1Cl)NC(C)(C)C(=O)C2(C)C`, the results for the Ki (on Glucocorticoid receptor [1]; on Progesterone receptor; in assay [3]) were 151 nM, 403 nM and over 3000 nM, respectively. At Glucocorticoid receptor [2], the concentration for half-maximal inhibition (IC50) was under 30 nM.

On to `Cc1cnn(C)c1-c1cc2c(c3c1CCC3)NC(C)(C)C(=O)C2(C)C`, for which the results for the inhibitory constant (Ki) on Glucocorticoid receptor [1] and on Progesterone receptor were 28 nM and over 1250 nM, respectively. The half-maximal inhibitory concentration (IC50) on Glucocorticoid receptor [2] is 128 nM.

Regarding `CC1(C)Nc2c(cc(-c3cncc4nccn34)c3c2CCC3)C(C)(C)C1=O`, the Ki on Glucocorticoid receptor [1] was 46 nM; at Progesterone receptor, over 1250 nM; in assay [3] it was over 3330 nM. Moreover, the concentration for half-maximal inhibition (IC50) on Glucocorticoid receptor [2] came out at 93 nM.

For `CC1(C)Nc2c(cc(-c3ccnc4ccccc34)c3c2CCC3)C(C)(C)C1=O`, the inhibition constant Ki on Glucocorticoid receptor [1] came to 151 nM.

For `CC1(C)Nc2c(cc(-c3cccc4nccn34)c3c2CCC3)C(C)(C)C1=O`, the 50% inhibitory concentration (IC50) on Glucocorticoid receptor [2] came out at 21 nM.

For `CC#C[C@]1(O)CC[C@H]2[C@@H]3CCC4=CC(=O)CCC4=C3[C@@H](c3ccc(N(C)C)cc3)C[C@@]21C` [MIFEPRISTONE], the Time worked out at 187 s in the assay with Rattus norvegicus [4] and 169.3 s in the assay with Rattus norvegicus [5]. Moreover, the Activity is 88.5% in the assay on Rattus norvegicus [6] and 80.1% in the assay with Rattus norvegicus [7].

Take `CC1(C)Nc2c(cc(-c3cccn4nccc34)c3c2CCC3)C(C)(C)C1=O`: the Ki on Glucocorticoid receptor [1] came to 35 nM; at Progesterone receptor, 1190 nM. In addition, the half-inhibitory concentration (IC50) at Glucocorticoid receptor [2] was 84 nM.

In the case of `Cc1cc(-c2cc3c(c4c2CCC4)NC(C)(C)C(=O)C3(C)C)n(C)n1`, the inhibition constant (Ki) on Glucocorticoid receptor [1] is over 384 nM.

Consider `Cc1noc(C)c1-c1cc2c(c3c1OCO3)NC(C)(C)C(=O)C2(C)C`, for which the Ki on Progesterone receptor was 2270 nM; in assay [3], over 3000 nM. For the same compound, the half-maximal inhibitory concentration (IC50) at Glucocorticoid receptor [2] amounted to 77 nM.

`Cc1cn(C)c(-c2cc3c(c4c2CCC4)NC(C)(C)C(=O)C3(C)C)n1`: the Ki on Glucocorticoid receptor [1] was over 384 nM.

For the compound `Cc1noc(C)c1-c1cc2c(c3c1CCCC3)NC(C)(C)C(=O)C2(C)C`, on Glucocorticoid receptor [1], the Ki is 106 nM. On Glucocorticoid receptor [2], the concentration for half-maximal inhibition (IC50) stood at 167 nM.

For the compound `COc1cc2c(cc1-c1c(C)noc1C)C(C)(C)C(=O)C(C)(C)N2`, on Glucocorticoid receptor [1], the Ki was determined as 146 nM.

In the case of `CC1(C)Nc2c(cc(-c3ccnc4ncccc34)c3c2CCC3)C(C)(C)C1=O`, the half-inhibitory concentration (IC50) at Glucocorticoid receptor [2] turned out to be 53 nM.
